Columns and labels:
[1] = molecular target: T1, Mcl-1/Bak protein-protein interactions (Homo sapiens, UniProt Q07820); assay: Cell-based split luciferase complementation assay; details: HEK 293 M cells, serum-free, 4 h
T1 construct: expressed in transfected cells; host or cells: HEK 293 M cells, transient transfection

OPM-2 = assay: Cell viability assay (OPM-2 10 FBS, CellTiter-Glo); type: cell-based, human; details: OPM-2 cells
recombinant human Mcl-1 = molecular target: T2, recombinant human Mcl-1 (Homo sapiens, UniProt Q07820); assay: Cell free Mcl-1:Bim affinity assay (Mcl-1 HTRF, TR-FRET); type: binding; details: inhibition of Mcl-1/Bim interaction
T2 construct: C-terminally 6×His tagged Mcl-1 containing residues 171-327; made in house
T2 sequence (Q07820 171-327): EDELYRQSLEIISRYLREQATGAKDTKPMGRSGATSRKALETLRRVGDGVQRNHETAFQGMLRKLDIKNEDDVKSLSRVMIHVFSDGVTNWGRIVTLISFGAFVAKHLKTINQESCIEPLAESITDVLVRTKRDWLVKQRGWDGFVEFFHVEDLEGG

T1 sequence (Q07820 whole entry): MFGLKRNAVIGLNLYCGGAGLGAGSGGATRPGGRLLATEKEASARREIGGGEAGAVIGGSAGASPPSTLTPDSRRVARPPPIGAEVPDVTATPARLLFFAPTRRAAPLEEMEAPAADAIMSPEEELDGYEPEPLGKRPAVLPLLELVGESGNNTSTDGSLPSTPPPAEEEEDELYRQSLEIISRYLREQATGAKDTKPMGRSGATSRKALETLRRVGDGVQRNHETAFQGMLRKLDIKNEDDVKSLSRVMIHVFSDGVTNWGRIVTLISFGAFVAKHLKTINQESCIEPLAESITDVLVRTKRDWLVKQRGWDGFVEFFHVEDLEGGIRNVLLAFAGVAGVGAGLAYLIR

IC50 [1] [nM] | IC50 (recombinant human Mcl-1) [nM] | SMILES | IC50 (OPM-2; Homo sapiens, OPM-2, 16 h) [nM] | IC50 (OPM-2; 16 h) [nM]
51.4 | 1.39 | CO[C@H]1/C=C/C[C@@H](C)[C@@H](C(C)C)S(=O)(=O)NC(=O)c2ccc3c(c2)N(C[C@@H]2CC[C@H]21)C[C@@]1(CCCc2cc(Cl)ccc21)CO3 [Example 53, (1S,3′R,6′R,7′S,8′E,11′R,12′R)-6-Chloro-7′-Methoxy-11′-Methyl-12′-(1-Methylethyl)-3,4-Dihydro-2H,15′H-Spiro[Naphthalene-1,22′-[20]Oxa[13]Thia[1,14]Diazatetracyclo[14.7.2.0^3,6.0^19,24]Pentacosa[8,16,18,24]Tetraen]-15′-One 13′,13′-Dioxide] | 328 | –
147 | 1.18 | CO[C@H]1CCC[C@H](C)[C@@H](C)S(=O)(=O)NC(=O)c2ccc3c(c2)N(C[C@@H]2CC[C@H]21)C[C@@]1(CCCc2cc(Cl)ccc21)CO3 [Example 7, (1S,3′R,6′R,7′S,11′S,12′R)-6-Chloro-7′-Methoxy-11′,12′-Dimethyl-3,4-Dihydro-2H,15′H-Spiro[Naphthalene-1,22′-[20]Oxa[13]Thia[1,14]Diazatetracyclo[14.7.2.0^3,6.0^19,24]Pentacos A[16,18,24]Trien]-15′-One 13′,13′-Dioxide] | 1060 | –
16.4 | 0.501 | CCC[C@@H]1[C@@H](C)C/C=C/[C@H](O)[C@@H]2CC[C@H]2CN2C[C@@]3(CCCc4cc(Cl)ccc43)COc3ccc(cc32)C(=O)NS1(=O)=O (single isomer, unassigned) [Example 68] | – | 179
34.1 | 0.441 | CO[C@H]1/C=C/CC[C@@H](C)S(=O)(=O)NC(=O)c2ccc3c(c2)N(C[C@@H]2CC[C@H]21)C[C@@]1(CCCc2cc(Cl)ccc21)CO3 [Example 13, (1S,3′R,6′R,7′S,8′E,12′R)-6-Chloro-7′-Methoxy-12′-Methyl-3,4-Dihydro-2H,15′H-Spiro[Naphthalene-1,22′-[20]Oxa[13]Thia[1,14]Diazatetracyclo[14.7.2.0^3,6.0^19,24]Pentacos A[8,16,18,24]Tetraen]-15′-One 13′,13′-Dioxide] | 353 | –
